This is an account of results in US20260159474A1, “Aminoindane Compounds and Compositions and Methods of Their Therapeutic Use” (Solvonis Therapeutics Ireland Holdings Limited, priority 2021, published 2026).

Like-named read-outs stand apart in the source and are kept apart here.

In data set [1] the target is T1, CYP3A4 (Homo sapiens, UniProt P08684).
T1 construct: purchased Life Technologies P2377; host or cells: Baculosomes
Kind of data set: CYP450 inhibition, fluorescent probe substrate. The format is in vitro ADME. The method, then: Methods: Recombinant human CYP450 isoenzymes were used to metabolize pro-fluorescent probe substrates to fluorescent products. IC50 values determined from the effect of test compounds on the metabolism of these probe substrates were then used to determine inhibitory potency against CYP450 isoforms. The chemical reagents included:
The test system was based on a three-step procedure with a “mix and read” format, where reaction and reading were performed at 37° C. The assays described herein measure in vitro inhibitory effects (pIC50) of compounds on the human P450 isoforms (1A2, 2B6, 2C8, 2C9, 2C19, 2D6, 3A4) expressed in recombinant microsomes. Pro-fluorescent probe substrates were metabolized to fluorescent products by the enzymes. Fluorescence was measured in kinetic mode (1 read/minutes for 10 minutes), and the fluorescence rate was calculated.
Inhibition of the fluorescent signal resulting from P450 activation indicated inhibitory activity and facilitated calculation of the compound pIC50. A quality check was included in each compound plate, wherein the signal window was monitored by performing Z′ calculations ([…] ) and the antagonist potency of internal standards was within the pIC50±2SD range. Concentration response curves (CRCs) of compounds were run on two different test occasions (n 2) by preparing serial dilutions from the same compound stock solution.
To prepare the compound plate, test compounds serial dilutions 1 to 3 were performed from a 10 mM stock solution in DMSO by Biomek FX to generate 10 point CRC with the highest concentrations in columns 3 and 13.
100% DMSO was placed in columns 1 and 2 and used for assay low controls. CYP inhibitor (10 mM miconazole solution in DMSO) was placed in columns 23 and 24 and served as an assay high controls. 1 μL copy plates were then stamped into V-bottom drug plates at a concentration that is 200 fold the final assay concentration. The copy plates were diluted prior to the experiment with assay buffer to reach 4 times the final assay concentration (2% w/v DMSO).
A reference compound (e.g., miconazole) was included in each compound plate in row A, column 3 and 13. The reference compound was diluted and stamped together with test compounds. The final concentrations of the 10 point CRCs of test compounds in the assay plate were 5.00E-05; 1.67E-05; 5.56E-06; 1.85E-06; 6.17E-07; 2.06E-07; 6.86E-08; 2.29E-08; 7.62E-09 and 2.54E-09, respectively. All solutions were prepared immediately before the assay.
Microsomes were added to the buffer prior to the substrate addition. The solution was carefully mixed without vortexing. 30 μL/well of the mixture was then transferred to the assay plate (384-well black plate) using a 16-channel pipette. For each P450 isoformn, a separate plate was prepared and labeled with a barcode. For fluorescence measurement, 10 μL/well of the test compounds were transferred from the compound plate to the assay plate using Biomek FX and the appropriate protocol. The assay plate was then incubated at 37° C. for 10 minutes on a shaker to allow for the interaction between compounds and enzymes.
10 μL/well of the cofactor was then added to the assay plate using the Multidrop before placing the assay plate in the plate reader EnVision to measure fluorescence. The overall final DMSO concentration for the assay was 0.5%. Plates were read every minute for 10 minutes, according to a P450 isoform specific protocol, as shown below.
The CYP3A4 and CYP2C8 were assayed using the Vivid CYP3A4 Baculosomes, CYP2C8 Baculosomes and Vivid DBOMF Substrate (Life Technologies, cat. P2377, PV6138 and P2974 respectively), while 2B6 is tested by Vivid CYP2B6 Baculosomes and Vivid BOMCC Substrate (Life Technologies, cat. P3028 and P2975). Test compounds were prepared as specified above. […]

The target of data set [2] is T2, hSERT (Homo sapiens, UniProt P31645).
T2 construct: expressed in transfected cells; host or cells: CHO (hSERT-CHO)
Briefly: SERT uptake SPA in hSERT-CHO cells. The format is cell-based. As to conditions: for SERT/DAT Uptake Ratio: calculated as 1/SERT IC50:1/DAT IC50.
Description: Briefly, on experiment days, hDAT-CHO cells were detached using Versene and added at a density of approximately 300,000 cells/mL to the SPA Mixture, which contains the following components in Assay Buffer (20 mM HEPES, 145 mM NaCl, 5 mM KCl, 2 mM CaCl2), 1 mM MgCl2, 5.5 mM glucose, 0.01% Pluronic F127, pH 7.3): 0.75 mg/mL SPA Imaging beads (RPNQ0001, PerkinElmer), 10 μM pargyline and 80 nM of [3H]-dopamine (NET673, PerkinEImer). The SPA Mixture was added 20 μL/well to 384 well plates containing 0.1 μL/well of test compound in neat DMSO (11 points of 1:5 serial dilution, 0.5% DMSO final) or 0.1 μL of DMSO (total uptake) or 0.1 μL of the standard inhibitor indatraline (at 1 μM final concentration, as nonspecific uptake). Plates were sealed with a Top-seal A and read using a Microbeta counter (PerkinElmer) after 45 minutes of incubation at room temperature. […] The SPA Mixture was added 20 μL/well to 384 well plates containing 0.1 μL/well of test compound in neat DMSO (11 points of 1:5 serial dilution, 0.5% DMSO final), 0.1 μL of DMSO (total uptake), or 0.1 μL of the standard inhibitor indatraline (1 μM, nonspecific uptake). Plates were sealed with a Top-seal A and read using a Microbeta counter (PerkinElmer) after 120 minutes of incubation at room temperature.
For both tests, the raw experimental data (cpm) were elaborated for the determination of pIC50/IC50 values as % inhibition of specific uptake. Concentration-response curves of MDMA, MDDMA, citalopram and GBR-12909 were used as internal standards in all experiments, and the signal window was monitored in each plate performing Z′ calculations, as described in Zhang et al., J Biomol Screen.

[3] abbreviates: recombinant human isoenzyme, n=2, read-out: Inhibition of CYP3A4, IC50.
The mark [4] stands for this setting: [3H]-serotonin uptake, hSERT-CHO cells, read-out: SERT Uptake SPA (pIC50) (converted).

T2 sequence (P31645 whole entry): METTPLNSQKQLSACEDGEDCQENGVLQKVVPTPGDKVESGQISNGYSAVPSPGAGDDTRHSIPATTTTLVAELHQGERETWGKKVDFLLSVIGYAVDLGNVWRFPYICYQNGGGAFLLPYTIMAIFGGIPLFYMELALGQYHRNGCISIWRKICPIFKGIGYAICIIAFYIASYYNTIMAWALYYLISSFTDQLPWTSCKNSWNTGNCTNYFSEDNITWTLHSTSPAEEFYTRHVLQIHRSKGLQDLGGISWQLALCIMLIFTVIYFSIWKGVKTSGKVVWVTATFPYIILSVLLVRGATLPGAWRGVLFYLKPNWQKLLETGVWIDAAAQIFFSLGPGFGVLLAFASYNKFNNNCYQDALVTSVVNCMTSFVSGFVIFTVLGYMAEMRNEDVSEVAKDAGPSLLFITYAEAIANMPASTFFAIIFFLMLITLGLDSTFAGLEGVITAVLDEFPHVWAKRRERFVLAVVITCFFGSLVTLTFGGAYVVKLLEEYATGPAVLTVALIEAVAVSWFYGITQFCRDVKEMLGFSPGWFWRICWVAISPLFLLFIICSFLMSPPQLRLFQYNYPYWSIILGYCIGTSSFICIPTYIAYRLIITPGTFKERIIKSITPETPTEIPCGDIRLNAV
T1 sequence (P08684 whole entry): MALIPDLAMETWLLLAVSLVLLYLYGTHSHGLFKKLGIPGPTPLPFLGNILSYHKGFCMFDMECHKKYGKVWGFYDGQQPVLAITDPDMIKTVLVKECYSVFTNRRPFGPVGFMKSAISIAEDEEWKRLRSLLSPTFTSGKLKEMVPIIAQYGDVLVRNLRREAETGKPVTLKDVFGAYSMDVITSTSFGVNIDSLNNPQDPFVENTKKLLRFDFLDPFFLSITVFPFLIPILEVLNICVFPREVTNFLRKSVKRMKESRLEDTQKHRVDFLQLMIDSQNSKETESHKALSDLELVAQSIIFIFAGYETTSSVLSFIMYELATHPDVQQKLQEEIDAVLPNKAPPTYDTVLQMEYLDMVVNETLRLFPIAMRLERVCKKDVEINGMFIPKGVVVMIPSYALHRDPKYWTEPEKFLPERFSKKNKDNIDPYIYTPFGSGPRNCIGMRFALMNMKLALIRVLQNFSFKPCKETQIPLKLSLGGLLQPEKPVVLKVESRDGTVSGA

`COc1ccc2c(c1)CC(N)C2` (centres unmarked) [MEAI, 5-methoxy-2-aminoindane] displayed an IC50 in data set [1] of over 50 µM. Moreover, in data set [2], the IC50 is 3.98 µM and the “SERT/DAT Uptake Ratio” value is reported as 9.
For the molecule `COC(=O)COc1ccc2c(c1)CC(N)C2` (centres unmarked) [CMP-402], the values for the IC50 in data set [1] (setting [3]) and in data set [2] (setting [4]) were over 50 µM and 63.1 µM, respectively. In addition, the “SERT/DAT Uptake Ratio” value in data set [2] is given as 1.4.
Consider `CNC(C)Cc1ccc2c(c1)OCO2` (centres unmarked) [MDMA], for which the IC50 in data set [1] (setting [3]) was over 50 µM. Further, the “SERT Uptake SPA (pIC50)” value in data set [2] ([3H]-serotonin uptake, hSERT-CHO cells) came to 6.0. The “SERT/DAT Uptake Ratio” value in data set [2] is reported as 2.1.
In the case of `COC(=O)c1cc2c(cc1OC)CC(N)C2` (centres unmarked) [CMP-401], the IC50 is over 50 µM in data set [1] (setting [3]) and 3.98 µM in data set [2] (setting [4]). The “SERT/DAT Uptake Ratio” value in data set [2] is reported as 22.
Molecule `COc1cc2c(cc1C)CC(N)C2` (centres unmarked) [MMAI, 5-methoxy-6-methyl-2-aminoindane] showed an IC50 in data set [1] of over 50 µM. For the same molecule, in data set [2], the IC50 is 1 µM and the “SERT/DAT Uptake Ratio” value was 52.
Turning to `COC(=O)c1ccc2c(c1)CC(N)C2` (centres unmarked) [CMP-405, 2-aminoindane-5-methylcarboxylate], the IC50 in data set [1] (setting [3]) was over 50 µM; in data set [2] (setting [4]) it was 7.94 µM.
